Assay results published in PMC9150076 (Journal of Medicinal Chemistry, 2022).
pIC50: −log10 of the molar value. Like-named read-outs stand apart in the source and are kept apart here.

Key:
[1] = test system: PDAC3 cells; assay: Apoptosis assay, Annexin-V staining, PDAC3; type: cell-based, human; conditions: PDAC3, drug at IC50, 72 h, compared to untreated cells
[2] = test system: PDAC2 cells; assay: Wound-healing/migration assay, PDAC2; type: cell-based, human; conditions: PDAC2, drug at 5× IC50; control 70 ± 3%
[3] = test system: PDAC3 cells; assay: Pharmacological interaction with gemcitabine, median drug effect analysis, PDAC3; type: cell-based, human
Procedure: The combination index (CI) was calculated to compare cell growth inhibition of the combination and each drug alone. Data analysis was carried out using CalcuSyn software (Biosoft, Oxford, UK). A CI of below 0.8 indicates a synergetic cytotoxic effect. A CI between 0.8 and 1.2 indicates an additive effect and above 1.2 indicates an antagonistic effect of the combination therapy.

[4] = Water solubility; type: physicochemical; conditions: distilled water, room temperature
Procedure: 6.9 software. Chromatographic separation was obtained using a Kinetex C18 column (150 × 4.6 mm) with a 5 μm particle size and gradient elution with a binary solution; (eluent A: ACN, eluent B: water, both eluents were acidified with formic acid 0.1% v/v). The analysis started with 5% of A (from t = 0 to t = 1 min), then A was increased to 95% (from t = 1 to t = 10 min), then kept at 95% (from t = 10 to t = 19 min), and finally returned to 5% of eluent A in 1.0 min. The flow rate was 0.6 mL/min, and injection volumes were 10 μL. The instrument operated in positive mode, and parameters were detector 1450 V, drying gas pressure 35.0 psi, desolvation temperature 300.0 °C, nebulizing gas 45.0 psi, needle 5550 V and shield 350 V. Nitrogen was used as a nebulizer gas and drying gas. Collision-induced dissociation was performed using argon as the collision gas at a pressure of 1.8 mTorr in the collision cell. The transitions as well as the capillary voltage and the collision energy used are appropriated for each tested compound. Quantification of the single compound was made by comparison with appropriate calibration curves realized with standard solutions in methanol. LC analyses of PAMPA, metabolic stability, and stability tests (in MeOH, PBS, human plasma) were performed by UV/LC–MS with an Agilent 1100 LC/MSD VL system ((G1946C) Agilent Technologies, Palo Alto, CA) using a Phenomenex Kinetex C18–100 Å (150 × 4.6 mm, 5 μm particle size) at room temperature. Analyses were carried out with the same chromatographic conditions reported above.
Each sample was mixed at room temperature in a shaker water bath for 24 h.[62] The resulting suspension was filtered through a 0.45 μm nylon filter (Acrodisc), and the solubilized compound was quantified in triplicate using the LC–MS/MS method reported above, by comparison with the appropriate calibration curve that was obtained from samples of the compound dissolved in methanol at different concentrations.

[5] = test system: active caspase-3 in PDAC3 cells; assay: Active caspase-3 immunoassay, PDAC3; type: cell-based, human; conditions: PDAC3, compared to untreated cells
[6] = test system: PDAC3 primary cell culture; assay: Growth inhibition, SRB assay, PDAC3; type: cell-based, human; conditions: Homo sapiens, PDAC-3; PDAC3, 72 h, SRB; read-out: IC50 antiproliferative activity
[7] = Stability test in human plasma; type: in vitro ADME; conditions: 37 °C
Procedure: The incubation mixture (total volume of […]) was constituted by the following components: pooled human plasma (1.5 mL, 55.7 mg protein/mL),[65] HEPES buffer (1.4 mL, 25 mM, 140 mM NaCl pH 7.4), and 100 μL of each compound in DMSO (3.0 mM). The solution was mixed in a test tube that was incubated at 37 °C. At set time points (0.0, 0.25, 0.50, 1.0, 2.0, 4.0, 8.0, and 24.0 h), samples of 100 μL were taken, mixed with 400 μL of cold acetonitrile, and centrifuged at 5000 rpm for 15 min.[66] The supernatant was removed and analyzed by UV/LC–MS. For each compound, the determination was performed in three independent experiments.

O=C(c1cc(O)ccc1F)N1CCC(Cc2cccc(Oc3cc(C(F)(F)F)ccn3)c2)CC1 [Compound 13, (2-Fluoro-5-hydroxyphenyl)(4-(3-((4-(trifluoromethyl)pyridin-2-yl)oxy)benzyl)piperidin-1-yl)methanone]
induction of apoptosis [1]: strongly enhanced apoptosis induction | gap closure [2]: 61 ± 3% | interaction with gemcitabine (CI) ([3]; PDAC3, compound 13 at IC25, gemcitabine 0–1.25 μM): additive | interaction with gemcitabine (CI) ([3]; PDAC3, compound 13 at IC50, gemcitabine 0–1.25 μM): synergy | solubility at 24 h ([4]; read-out: water solubility): < 1 ng/mL | solubility at 24 h ([4]; read-out: water solubility (logS)): < 2.11 nM | levels of active caspase-3 [5]: significantly higher levels of active caspase-3 | pIC50 [6]: 5.14 | stability human plasma [7]: >24 h
